Columns and labels:
Test in all cases: relative viability (nuclei count vs DMSO), 5 days (fraction); higher = more cells survive
Everolimus + Foretinib = compound: CO[C@H]1C[C@@H]2CC[C@@H](C)[C@@](O)(O2)C(=O)C(=O)N2CCCC[C@H]2C(=O)O[C@H]([C@H](C)C[C@@H]2CC[C@@H](OCCO)[C@H](OC)C2)CC(=O)[C@H](C)/C=C(\C)[C@@H](O)[C@@H](OC)C(=O)[C@H](C)C[C@H](C)/C=C/C=C/C=C/1C [Everolimus] + COc1cc2c(Oc3ccc(NC(=O)C4(C(=O)Nc5ccc(F)cc5)CC4)cc3F)ccnc2cc1OCCCN1CCOCC1 [Foretinib] (partner 0.25 µM)
In short: (§1)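 Cells from lung cancer lines were seeded into 1536-well plates and, one day later, dosed by pin tool. Treatments were either a single drug or a fixed dose of an anchor drug with five library-drug doses (not always all listed) in √10 steps. After 5 days, nuclei were stained in a one-step fixation (final 0.05% Triton X-100, 1% formaldehyde, 1 ug/ml Hoechst) and counted on 4× images, and relative viability is the treated-to-vehicle nuclei ratio, as the median of duplicate plates.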

Everolimus + Navitoclax = compound: CO[C@H]1C[C@@H]2CC[C@@H](C)[C@@](O)(O2)C(=O)C(=O)N2CCCC[C@H]2C(=O)O[C@H]([C@H](C)C[C@@H]2CC[C@@H](OCCO)[C@H](OC)C2)CC(=O)[C@H](C)/C=C(\C)[C@@H](O)[C@@H](OC)C(=O)[C@H](C)C[C@H](C)/C=C/C=C/C=C/1C [Everolimus] + CC1(C)CCC(c2ccc(Cl)cc2)=C(CN2CCN(c3ccc(C(=O)NS(=O)(=O)c4ccc(N[C@H](CCN5CCOCC5)CSc5ccccc5)c(S(=O)(=O)C(F)(F)F)c4)cc3)CC2)C1 [Navitoclax] (partner 0.5 µM)
In short: as §1

Everolimus + Luminespib = compound: CO[C@H]1C[C@@H]2CC[C@@H](C)[C@@](O)(O2)C(=O)C(=O)N2CCCC[C@H]2C(=O)O[C@H]([C@H](C)C[C@@H]2CC[C@@H](OCCO)[C@H](OC)C2)CC(=O)[C@H](C)/C=C(\C)[C@@H](O)[C@@H](OC)C(=O)[C@H](C)C[C@H](C)/C=C/C=C/C=C/1C [Everolimus] + CCNC(=O)c1noc(-c2cc(C(C)C)c(O)cc2O)c1-c1ccc(CN2CCOCC2)cc1 [Luminespib] (partner 0.01 µM)
In short: as §1

Everolimus + Linsitinib = compound: CO[C@H]1C[C@@H]2CC[C@@H](C)[C@@](O)(O2)C(=O)C(=O)N2CCCC[C@H]2C(=O)O[C@H]([C@H](C)C[C@@H]2CC[C@@H](OCCO)[C@H](OC)C2)CC(=O)[C@H](C)/C=C(\C)[C@@H](O)[C@@H](OC)C(=O)[C@H](C)C[C@H](C)/C=C/C=C/C=C/1C [Everolimus] + C[C@]1(O)C[C@@H](c2nc(-c3ccc4ccc(-c5ccccc5)nc4c3)c3c(N)nccn32)C1 [Linsitinib] (partner 1 µM)
In short: as §1

## NCI-H1993
Everolimus + Foretinib; first compound 0.01 µM
  relative viability: 0.554
Everolimus + Foretinib; first compound 0.03162 µM
  relative viability: 0.592
Everolimus + Foretinib; first compound 0.1 µM
  relative viability: 0.667
Everolimus + Foretinib; first compound 0.3162 µM
  relative viability: 0.628
Everolimus + Foretinib; first compound 1 µM
  relative viability: 0.627
Everolimus + Navitoclax; first compound 0.01 µM
  relative viability: 0.687
Everolimus + Navitoclax; first compound 0.03162 µM
  relative viability: 0.676
Everolimus + Navitoclax; first compound 0.1 µM
  relative viability: 0.631
Everolimus + Navitoclax; first compound 0.3162 µM
  relative viability: 0.585
Everolimus + Navitoclax; first compound 1 µM
  relative viability: 0.717
Everolimus + Luminespib; first compound 0.01 µM
  relative viability: 0.528
Everolimus + Luminespib; first compound 0.03162 µM
  relative viability: 0.459
Everolimus + Luminespib; first compound 0.1 µM
  relative viability: 0.366
Everolimus + Luminespib; first compound 0.3162 µM
  relative viability: 0.456
Everolimus + Luminespib; first compound 1 µM
  relative viability: 0.58
Everolimus + Linsitinib; first compound 0.01 µM
  relative viability: 0.689
Everolimus + Linsitinib; first compound 0.03162 µM
  relative viability: 0.63
Everolimus + Linsitinib; first compound 0.1 µM
  relative viability: 0.666
Everolimus + Linsitinib; first compound 0.3162 µM
  relative viability: 0.694
Everolimus + Linsitinib; first compound 1 µM
  relative viability: 0.691

## NCI-H2009
Everolimus + Foretinib; first compound 0.01 µM
  relative viability: 0.961
Everolimus + Foretinib; first compound 0.03162 µM
  relative viability: 1.04
Everolimus + Foretinib; first compound 0.1 µM
  relative viability: 0.826
Everolimus + Foretinib; first compound 0.3162 µM
  relative viability: 1.04
Everolimus + Foretinib; first compound 1 µM
  relative viability: 0.936
Everolimus + Navitoclax; first compound 0.01 µM
  relative viability: 1.04
Everolimus + Navitoclax; first compound 0.03162 µM
  relative viability: 1.09
Everolimus + Navitoclax; first compound 0.1 µM
  relative viability: 0.898
Everolimus + Navitoclax; first compound 0.3162 µM
  relative viability: 0.814
Everolimus + Navitoclax; first compound 1 µM
  relative viability: 0.836
Everolimus + Luminespib; first compound 0.01 µM
  relative viability: 0.832
Everolimus + Luminespib; first compound 0.03162 µM
  relative viability: 0.866
Everolimus + Luminespib; first compound 0.1 µM
  relative viability: 0.77
Everolimus + Luminespib; first compound 0.3162 µM
  relative viability: 0.852
Everolimus + Luminespib; first compound 1 µM
  relative viability: 0.72
Everolimus + Linsitinib; first compound 0.01 µM
  relative viability: 0.875
Everolimus + Linsitinib; first compound 0.03162 µM
  relative viability: 0.897
Everolimus + Linsitinib; first compound 0.1 µM
  relative viability: 0.901
Everolimus + Linsitinib; first compound 0.3162 µM
  relative viability: 0.887
Everolimus + Linsitinib; first compound 1 µM
  relative viability: 0.795

## NCI-H2023
Everolimus + Foretinib; first compound 0.01 µM
  relative viability: 0.503
Everolimus + Foretinib; first compound 0.03162 µM
  relative viability: 0.404
Everolimus + Foretinib; first compound 0.1 µM
  relative viability: 0.424
Everolimus + Foretinib; first compound 0.3162 µM
  relative viability: 0.358
Everolimus + Foretinib; first compound 1 µM
  relative viability: 0.376
Everolimus + Navitoclax; first compound 0.01 µM
  relative viability: 0.763
Everolimus + Navitoclax; first compound 0.03162 µM
  relative viability: 0.471
Everolimus + Navitoclax; first compound 0.1 µM
  relative viability: 0.529
Everolimus + Navitoclax; first compound 0.3162 µM
  relative viability: 0.536
Everolimus + Navitoclax; first compound 1 µM
  relative viability: 0.348
Everolimus + Luminespib; first compound 0.01 µM
  relative viability: 0.309
Everolimus + Luminespib; first compound 0.03162 µM
  relative viability: 0.269
Everolimus + Luminespib; first compound 0.1 µM
  relative viability: 0.413
Everolimus + Luminespib; first compound 0.3162 µM
  relative viability: 0.266
Everolimus + Luminespib; first compound 1 µM
  relative viability: 0.219
Everolimus + Linsitinib; first compound 0.01 µM
  relative viability: 0.301
Everolimus + Linsitinib; first compound 0.03162 µM
  relative viability: 0.323
Everolimus + Linsitinib; first compound 0.1 µM
  relative viability: 0.303
Everolimus + Linsitinib; first compound 0.3162 µM
  relative viability: 0.282
Everolimus + Linsitinib; first compound 1 µM
  relative viability: 0.219

## NCI-H2085
Everolimus + Foretinib; first compound 0.01 µM
  relative viability: 0.812
Everolimus + Foretinib; first compound 0.03162 µM
  relative viability: 0.584
Everolimus + Foretinib; first compound 0.1 µM
  relative viability: 0.617
Everolimus + Foretinib; first compound 0.3162 µM
  relative viability: 0.777
Everolimus + Foretinib; first compound 1 µM
  relative viability: 0.695
Everolimus + Navitoclax; first compound 0.01 µM
  relative viability: 0.73
Everolimus + Navitoclax; first compound 0.03162 µM
  relative viability: 0.811
Everolimus + Navitoclax; first compound 0.1 µM
  relative viability: 0.66
Everolimus + Navitoclax; first compound 0.3162 µM
  relative viability: 0.83
Everolimus + Navitoclax; first compound 1 µM
  relative viability: 0.705
Everolimus + Luminespib; first compound 0.01 µM
  relative viability: 0.258
Everolimus + Luminespib; first compound 0.03162 µM
  relative viability: 0.28
Everolimus + Luminespib; first compound 0.1 µM
  relative viability: 0.349
Everolimus + Luminespib; first compound 0.3162 µM
  relative viability: 0.319
Everolimus + Luminespib; first compound 1 µM
  relative viability: 0.304
Everolimus + Linsitinib; first compound 0.01 µM
  relative viability: 0.735
Everolimus + Linsitinib; first compound 0.03162 µM
  relative viability: 0.522
Everolimus + Linsitinib; first compound 0.1 µM
  relative viability: 0.519
Everolimus + Linsitinib; first compound 0.3162 µM
  relative viability: 0.509
Everolimus + Linsitinib; first compound 1 µM
  relative viability: 0.484

## NCI-H2087
Everolimus + Foretinib; first compound 0.01 µM
  relative viability: 0.704
Everolimus + Foretinib; first compound 0.03162 µM
  relative viability: 0.662
Everolimus + Foretinib; first compound 0.1 µM
  relative viability: 0.739
Everolimus + Foretinib; first compound 0.3162 µM
  relative viability: 0.875
Everolimus + Foretinib; first compound 1 µM
  relative viability: 0.713
Everolimus + Navitoclax; first compound 0.01 µM
  relative viability: 0.888
Everolimus + Navitoclax; first compound 0.03162 µM
  relative viability: 0.852
Everolimus + Navitoclax; first compound 0.1 µM
  relative viability: 0.888
Everolimus + Navitoclax; first compound 0.3162 µM
  relative viability: 0.847
Everolimus + Navitoclax; first compound 1 µM
  relative viability: 0.69
Everolimus + Luminespib; first compound 0.01 µM
  relative viability: 0.168
Everolimus + Luminespib; first compound 0.03162 µM
  relative viability: 0.205
Everolimus + Luminespib; first compound 0.1 µM
  relative viability: 0.146
Everolimus + Luminespib; first compound 0.3162 µM
  relative viability: 0.143
Everolimus + Luminespib; first compound 1 µM
  relative viability: 0.15
Everolimus + Linsitinib; first compound 0.01 µM
  relative viability: 0.821
Everolimus + Linsitinib; first compound 0.03162 µM
  relative viability: 1.09
Everolimus + Linsitinib; first compound 0.1 µM
  relative viability: 0.765
Everolimus + Linsitinib; first compound 0.3162 µM
  relative viability: 0.788
Everolimus + Linsitinib; first compound 1 µM
  relative viability: 0.674

## NCI-H2126
Everolimus + Foretinib; first compound 0.01 µM
  relative viability: 0.97
Everolimus + Foretinib; first compound 0.03162 µM
  relative viability: 0.925
Everolimus + Foretinib; first compound 0.1 µM
  relative viability: 0.892
Everolimus + Foretinib; first compound 0.3162 µM
  relative viability: 0.772
Everolimus + Foretinib; first compound 1 µM
  relative viability: 0.73
Everolimus + Navitoclax; first compound 0.01 µM
  relative viability: 0.515
Everolimus + Navitoclax; first compound 0.03162 µM
  relative viability: 0.455
Everolimus + Navitoclax; first compound 0.1 µM
  relative viability: 0.4
Everolimus + Navitoclax; first compound 0.3162 µM
  relative viability: 0.492
Everolimus + Navitoclax; first compound 1 µM
  relative viability: 0.485
Everolimus + Luminespib; first compound 0.01 µM
  relative viability: 0.532
Everolimus + Luminespib; first compound 0.03162 µM
  relative viability: 0.457
Everolimus + Luminespib; first compound 0.1 µM
  relative viability: 0.42
Everolimus + Luminespib; first compound 0.3162 µM
  relative viability: 0.564
Everolimus + Luminespib; first compound 1 µM
  relative viability: 0.381
Everolimus + Linsitinib; first compound 0.01 µM
  relative viability: 0.463
Everolimus + Linsitinib; first compound 0.03162 µM
  relative viability: 0.448
Everolimus + Linsitinib; first compound 0.1 µM
  relative viability: 0.393
Everolimus + Linsitinib; first compound 0.3162 µM
  relative viability: 0.425
Everolimus + Linsitinib; first compound 1 µM
  relative viability: 0.457

## NCI-H2228
Everolimus + Foretinib; first compound 0.01 µM
  relative viability: 0.603
Everolimus + Foretinib; first compound 0.03162 µM
  relative viability: 0.586
Everolimus + Foretinib; first compound 0.1 µM
  relative viability: 0.575
Everolimus + Foretinib; first compound 0.3162 µM
  relative viability: 0.413
Everolimus + Foretinib; first compound 1 µM
  relative viability: 0.556
Everolimus + Navitoclax; first compound 0.01 µM
  relative viability: 0.685
Everolimus + Navitoclax; first compound 0.03162 µM
  relative viability: 0.527
Everolimus + Navitoclax; first compound 0.1 µM
  relative viability: 0.508
Everolimus + Navitoclax; first compound 0.3162 µM
  relative viability: 0.421
Everolimus + Navitoclax; first compound 1 µM
  relative viability: 0.539
Everolimus + Luminespib; first compound 0.01 µM
  relative viability: 0.114
Everolimus + Luminespib; first compound 0.03162 µM
  relative viability: 0.185
Everolimus + Luminespib; first compound 0.1 µM
  relative viability: 0.145
Everolimus + Luminespib; first compound 0.3162 µM
  relative viability: 0.131
Everolimus + Luminespib; first compound 1 µM
  relative viability: 0.115
Everolimus + Linsitinib; first compound 0.01 µM
  relative viability: 0.272
Everolimus + Linsitinib; first compound 0.03162 µM
  relative viability: 0.351
Everolimus + Linsitinib; first compound 0.1 µM
  relative viability: 0.552
Everolimus + Linsitinib; first compound 0.3162 µM
  relative viability: 0.249
Everolimus + Linsitinib; first compound 1 µM
  relative viability: 0.364
